These results are taken from ChEMBL document CHEMBL1149563 (Bioorg Med Chem Lett, 2007).

pEC50, pIC50, pKi: −log10 of the molar value.

In series [1] the target is T1, Androgen receptor (Mus musculus, UniProt P19091).
T1 sequence (P19091 whole entry): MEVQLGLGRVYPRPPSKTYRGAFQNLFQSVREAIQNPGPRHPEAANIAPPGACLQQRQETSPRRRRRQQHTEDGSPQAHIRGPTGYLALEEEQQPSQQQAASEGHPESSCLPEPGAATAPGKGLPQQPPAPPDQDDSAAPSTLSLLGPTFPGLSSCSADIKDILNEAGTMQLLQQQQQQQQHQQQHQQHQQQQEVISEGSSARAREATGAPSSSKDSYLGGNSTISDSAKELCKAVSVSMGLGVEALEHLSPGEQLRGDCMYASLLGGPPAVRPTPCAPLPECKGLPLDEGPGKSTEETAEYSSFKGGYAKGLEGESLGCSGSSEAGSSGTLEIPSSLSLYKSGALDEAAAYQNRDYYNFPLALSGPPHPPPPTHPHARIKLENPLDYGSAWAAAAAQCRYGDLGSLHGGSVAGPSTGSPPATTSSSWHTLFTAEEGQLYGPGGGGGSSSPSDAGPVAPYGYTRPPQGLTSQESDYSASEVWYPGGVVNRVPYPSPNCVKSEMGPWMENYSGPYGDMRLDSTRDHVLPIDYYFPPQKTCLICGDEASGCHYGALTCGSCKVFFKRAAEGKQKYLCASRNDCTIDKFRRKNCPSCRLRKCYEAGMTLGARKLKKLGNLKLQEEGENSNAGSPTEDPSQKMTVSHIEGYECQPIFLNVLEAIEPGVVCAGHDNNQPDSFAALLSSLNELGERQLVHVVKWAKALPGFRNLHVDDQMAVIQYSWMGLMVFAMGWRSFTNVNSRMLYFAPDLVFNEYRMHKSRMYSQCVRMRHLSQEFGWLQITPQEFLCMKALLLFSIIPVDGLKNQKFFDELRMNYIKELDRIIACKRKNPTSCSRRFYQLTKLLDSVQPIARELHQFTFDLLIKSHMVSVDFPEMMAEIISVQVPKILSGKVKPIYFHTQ
In words: Agonist activity at androgen receptor in mouse C2C12 cells by receptor transactivation assay. The class given is functional, cell-based.

Series [2] deals with T2, Androgen receptor (Homo sapiens, UniProt P10275).
T2 sequence (P10275 whole entry): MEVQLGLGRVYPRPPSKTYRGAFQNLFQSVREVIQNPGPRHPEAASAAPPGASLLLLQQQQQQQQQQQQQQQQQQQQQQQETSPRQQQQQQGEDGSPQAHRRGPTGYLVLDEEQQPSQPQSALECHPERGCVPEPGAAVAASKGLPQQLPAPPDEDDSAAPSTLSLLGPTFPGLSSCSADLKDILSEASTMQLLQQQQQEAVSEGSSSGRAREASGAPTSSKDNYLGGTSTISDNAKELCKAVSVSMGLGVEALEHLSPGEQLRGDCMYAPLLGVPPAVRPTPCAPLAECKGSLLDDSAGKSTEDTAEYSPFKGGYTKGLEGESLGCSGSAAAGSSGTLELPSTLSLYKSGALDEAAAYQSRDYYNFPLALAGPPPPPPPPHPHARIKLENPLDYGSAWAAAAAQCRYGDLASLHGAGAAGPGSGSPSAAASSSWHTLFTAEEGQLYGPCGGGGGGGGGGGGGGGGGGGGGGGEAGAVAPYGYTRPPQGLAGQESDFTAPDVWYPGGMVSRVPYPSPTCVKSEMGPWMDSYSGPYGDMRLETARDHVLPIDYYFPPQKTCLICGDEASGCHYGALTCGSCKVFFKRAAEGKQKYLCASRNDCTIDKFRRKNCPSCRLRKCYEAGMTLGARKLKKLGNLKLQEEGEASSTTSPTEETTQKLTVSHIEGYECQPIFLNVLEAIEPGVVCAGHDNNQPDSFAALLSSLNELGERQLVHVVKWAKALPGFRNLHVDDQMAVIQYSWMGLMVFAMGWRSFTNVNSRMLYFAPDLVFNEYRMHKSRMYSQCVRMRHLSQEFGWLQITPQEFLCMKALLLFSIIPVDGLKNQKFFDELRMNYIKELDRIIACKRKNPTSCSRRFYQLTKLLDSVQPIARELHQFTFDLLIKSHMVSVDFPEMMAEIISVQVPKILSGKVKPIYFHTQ
In words: Displacement of [3H]DHT from human androgen receptor in MDA453 cells. The class given is cell-based. On the technique in general: Displacement assays read how much labelled ligand stays bound in the presence of the test substance.

In series [3] the target is T1, Androgen receptor.
Description: Antagonist activity at androgen receptor in mouse C2C12 cells by receptor transactivation assay
Series [4] concerns Rattus norvegicus. Briefly: Effect on levator ani muscle weight in castrated rat at 0.3 mg/kg, sc after 14 days relative to intact rat. It counts as functional. Conditions: route subcutaneous.
Series [5] concerns Rattus norvegicus. Briefly: Effect on […] in castrated rat at 0.3 mg/kg, sc after 14 days relative to intact rat. The class given is functional. Conditions: route subcutaneous.
Series [6] can be described thus: Clearance in rat at 5 mg/kg, iv or 10 mg/kg, po. The settings on record: in vivo. The class given is ADME, organism-based.
Series [7] deals with Rattus norvegicus. Briefly: Effect on […] in castrated rat at 10 mg/kg, po after 14 days relative to intact rat. It counts as functional.
Series [8] can be described thus: Oral bioavailability in rat at 10 mg/kg. The class given is ADME, organism-based. Conditions: in vivo.
The nature of series [9]: Half life in rat at 5 mg/kg, iv or 10 mg/kg, po. It counts as ADME, organism-based. Conditions: in vivo.
Series [10] concerns Rattus norvegicus. Briefly: Effect on levator ani muscle weight in castrated rat at 10 mg/kg, po after 14 days relative to intact rat. It counts as functional.
A short description of series [11]: Cmax in rat at 5 mg/kg, iv or 10 mg/kg, po. Conditions: in vivo. It counts as ADME, organism-based.

`COC(=O)[C@@H]1[C@H](O)CCN1S(=O)(=O)c1ccc(C#N)c(Cl)c1C`: the pEC50 (usually the negative decadic logarithm of the EC50, by convention in mol/L) in series [1] was less than 5.52. Also, the pKi (in general, −log10 of the Ki, conventionally taken in molar units) in series [2] is 7.44. Moreover, the pIC50 – broadly, the negative decadic logarithm of the IC50, by convention in mol/L – in [3] was 6.56.

For `CCC(=O)O[C@H]1CC[C@H]2[C@@H]3CCC4=CC(=O)CC[C@]4(C)[C@H]3CC[C@]12C` [TESTOSTERONE PROPIONATE], the Activity in series [4] and in series [5] was 70% in each case. The compound further had a pEC50 in [1] of 8.55. The compound also had a negative logarithm of the Ki (pKi) in series [2] of 9.60.

In series [1], `Cc1c(N2C(=O)[C@]3(C)[C@H](O)CCN3S2(=O)=O)ccc(C#N)c1Cl` had a pEC50 of 5.90. In [2], the pKi was 8.09.

Consider `COC(=O)[C@@H]1[C@H](O)CCN1S(=O)(=O)Nc1ccc(C#N)c(Cl)c1C`, for which the pEC50 in series [1] is 5.13.

`Cc1c(NS(=O)(=O)N2CC[C@@H](O)[C@H]2C(=O)O)ccc(C#N)c1Cl` had a pEC50 in [1] of 8.55.

In series [1], `Cc1c(N2C(C)[C@@H]3[C@@H](O)CCN3S2(=O)=O)ccc(C#N)c1Cl` (stereo not given in full) had a pEC50 of 5.05. The compound also gave a pKi in series [2] of 7.70.

`Cc1c(N2C(=O)[C@@H]3C[C@H](O)CN3S2(=O)=O)ccc(C#N)c1Cl` gave a pEC50 in series [1] of 5.45. Moreover, in [2], the pKi was 7.36.

For `Cc1c(N2C(=O)[C@@H]3[C@H](O)CCN3C2=O)ccc(C#N)c1Cl`, in series [1], the pEC50 was 9.36.

For `N#Cc1ccc(N2C(=O)[C@@H]3[C@H](O)CCN3C2=O)c2ccccc12`, the pEC50 in series [1] was 8.64.

As to `Cc1c(N2C(=O)[C@@H]3[C@H](O)CCN3S2(=O)=O)ccc(C#N)c1Cl`, the clearance in series [6] amounted to 12.8 mL/min/kg. The Activity in [7] was 10%; in series [10], 70%. Further, the bioavailability (as a rule, dose-corrected exposure relative to a reference, in per cent) in series [8] stood at 53%. For the same compound, the half-life – broadly, the time needed for the level to fall by half in the phase considered – in series [9] was 54 min. The compound further gave a pEC50 in series [1] of 7.92. In series [2], the pKi was 9.35. Also, the Cmax (as a rule, the highest concentration seen after dosing) in series [11] amounted to 8.4 µM.

The compound `Cc1c(N2C(=O)[C@@H]3[C@@H](O)CCN3S2(=O)=O)ccc(C#N)c1Cl` showed a pEC50 in series [1] of 5.53. The compound also had a pKi in [2] of 7.54.

For the compound `Cc1c(N2C[C@@H]3[C@H](O)CCN3S2(=O)=O)ccc(C#N)c1Cl`, the pEC50 in series [1] is 5.11. In series [2], this compound had a pKi of 7.85.

As to `Cc1c(N2C[C@@H]3[C@@H](O)CCN3S2(=O)=O)ccc(C#N)c1Cl`, in [2], the pKi is 6.72.
